Reference: the NIST ThermoML archive (doi:10.1021/je700428f)

Assay: xn = mol fraction of the nth substance listed
Settings: 101 kPa, Liquid; for viscosity: Capillary tube (Ostwald / Ubbelohde) method

CCCCCCCCC [nonane] + COC(C)(C)C
Settings	mass density [kg/m3]	viscosity [mPa·s]
308.15 K, x2 = 0	706.011	–
308.15 K, x2 = 0.1085	706.97	–
308.15 K, x2 = 0.1722	707.6	–
308.15 K, x2 = 0.3037	709.03	–
308.15 K, x2 = 0.4011	710.36	–
308.15 K, x2 = 0.5008	711.93	–
308.15 K, x2 = 0.6005	713.77	–
308.15 K, x2 = 0.6992	715.84	–
308.15 K, x2 = 0.6998	–	0.386
308.15 K, x2 = 0.7975	–	0.357
308.15 K, x2 = 0.8005	718.35	–
308.15 K, x2 = 0.8925	721.04	–
313.15 K, x2 = 0	702.076	0.555
313.15 K, x2 = 0.1006	–	0.529
313.15 K, x2 = 0.1085	702.96	–
313.15 K, x2 = 0.1722	703.52	–
313.15 K, x2 = 0.2026	–	0.498
313.15 K, x2 = 0.2995	–	0.472
313.15 K, x2 = 0.3037	704.82	–
313.15 K, x2 = 0.4011	706.05	–
313.15 K, x2 = 0.4045	–	0.446
313.15 K, x2 = 0.5003	–	0.421
313.15 K, x2 = 0.5008	707.49	–
313.15 K, x2 = 0.6005	709.18	–
313.15 K, x2 = 0.6035	–	0.391
313.15 K, x2 = 0.6992	711.09	–
313.15 K, x2 = 0.6998	–	0.367
313.15 K, x2 = 0.8005	713.41	–
313.15 K, x2 = 0.8925	715.91	–
318.15 K, x2 = 0	698.124	0.522
318.15 K, x2 = 0.1006	–	0.498
318.15 K, x2 = 0.1085	698.89	–
318.15 K, x2 = 0.1722	699.42	–
318.15 K, x2 = 0.2026	–	0.471
318.15 K, x2 = 0.2995	–	0.446
318.15 K, x2 = 0.3037	700.6	–
318.15 K, x2 = 0.4011	701.71	–
318.15 K, x2 = 0.4045	–	0.422
318.15 K, x2 = 0.5003	–	0.401
318.15 K, x2 = 0.5008	703.01	–
318.15 K, x2 = 0.6005	704.56	–
318.15 K, x2 = 0.6035	–	0.372
318.15 K, x2 = 0.6992	706.3	–
318.15 K, x2 = 0.6998	–	0.348
318.15 K, x2 = 0.8005	708.45	–
318.15 K, x2 = 0.8925	710.72	–
323.15 K, x2 = 0	694.151	0.493
323.15 K, x2 = 0.1006	–	0.47
323.15 K, x2 = 0.1085	694.83	–
323.15 K, x2 = 0.1722	695.3	–
323.15 K, x2 = 0.2026	–	0.446
323.15 K, x2 = 0.2995	–	0.423
323.15 K, x2 = 0.3037	696.34	–
323.15 K, x2 = 0.4011	697.34	–
323.15 K, x2 = 0.4045	–	0.402
323.15 K, x2 = 0.5003	–	0.382
323.15 K, x2 = 0.5008	698.51	–
323.15 K, x2 = 0.6005	699.89	–
323.15 K, x2 = 0.6035	–	0.354
323.15 K, x2 = 0.6992	701.46	–
323.15 K, x2 = 0.8005	703.35	–
323.15 K, x2 = 0.8925	705.48	–
328.15 K, x2 = 0	690.165	0.466
328.15 K, x2 = 0.1006	–	0.445
328.15 K, x2 = 0.1085	690.74	–
328.15 K, x2 = 0.1722	691.16	–
328.15 K, x2 = 0.2026	–	0.424
328.15 K, x2 = 0.2995	–	0.402
328.15 K, x2 = 0.3037	692.06	–
328.15 K, x2 = 0.4011	692.94	–
328.15 K, x2 = 0.4045	–	0.383
328.15 K, x2 = 0.5003	–	0.364
328.15 K, x2 = 0.5008	693.97	–
328.15 K, x2 = 0.6005	695.19	–
328.15 K, x2 = 0.6992	696.59	–
328.15 K, x2 = 0.8005	698.27	–
333.15 K, x2 = 0	686.154	0.442
333.15 K, x2 = 0.1006	–	0.423
333.15 K, x2 = 0.1085	686.64	–
333.15 K, x2 = 0.1722	686.99	–
333.15 K, x2 = 0.2026	–	0.404
333.15 K, x2 = 0.2995	–	0.383
333.15 K, x2 = 0.3037	687.76	–
333.15 K, x2 = 0.4011	688.5	–
333.15 K, x2 = 0.4045	–	0.365
333.15 K, x2 = 0.5003	–	0.347
333.15 K, x2 = 0.5008	689.39	–
333.15 K, x2 = 0.6005	690.45	–
333.15 K, x2 = 0.6992	691.66	–
333.15 K, x2 = 0.8005	693.14	–
338.15 K, x2 = 0	682.116	0.42
338.15 K, x2 = 0.1006	–	0.402
338.15 K, x2 = 0.1085	682.52	–
338.15 K, x2 = 0.1722	682.79	–
338.15 K, x2 = 0.2026	–	0.386
338.15 K, x2 = 0.2995	–	0.366
338.15 K, x2 = 0.3037	683.42	–
338.15 K, x2 = 0.4011	684.02	–
338.15 K, x2 = 0.4045	–	0.348
338.15 K, x2 = 0.5008	684.76	–
338.15 K, x2 = 0.6005	685.66	–
338.15 K, x2 = 0.6992	686.68	–
338.15 K, x2 = 0.8005	687.95	–
343.15 K, x2 = 0	678.06	0.399
343.15 K, x2 = 0.1006	–	0.383
343.15 K, x2 = 0.1085	678.37	–
343.15 K, x2 = 0.1722	678.57	–
343.15 K, x2 = 0.2026	–	0.368
343.15 K, x2 = 0.2995	–	0.351
343.15 K, x2 = 0.3037	679.05	–
343.15 K, x2 = 0.4011	679.52	–
343.15 K, x2 = 0.5008	680.11	–
343.15 K, x2 = 0.6005	680.83	–
348.15 K, x2 = 0	673.979	0.38
348.15 K, x2 = 0.1006	–	0.366
348.15 K, x2 = 0.1085	674.19	–
348.15 K, x2 = 0.1722	674.31	–
348.15 K, x2 = 0.2026	–	0.352
348.15 K, x2 = 0.3037	674.64	–
348.15 K, x2 = 0.4011	674.98	–
353.15 K, x2 = 0	669.872	0.362
353.15 K, x2 = 0.1006	–	0.35
353.15 K, x2 = 0.1085	669.95	–
353.15 K, x2 = 0.1722	670.02	–
353.15 K, x2 = 0.2026	–	0.338
353.15 K, x2 = 0.3037	670.19	–
353.15 K, x2 = 0.4011	670.38	–
358.15 K, x2 = 0	665.73	0.346
358.15 K, x2 = 0.1006	–	0.335
358.15 K, x2 = 0.1085	665.71	–
358.15 K, x2 = 0.1722	665.7	–
358.15 K, x2 = 0.3037	665.7	–
358.15 K, x2 = 0.4011	665.75	–
363.15 K, x2 = 0	661.557	–
363.16 K, x2 = 0.1085	661.43	–
363.16 K, x2 = 0.1722	661.33	–
363.16 K, x2 = 0.3037	661.17	–
